Test results: the NIST ThermoML archive (doi:10.1021/je600573w)

Key:
[1] = 101.33 kPa, Liquid, Vibrating tube method
[2] = molar heat capacity at constant pressure; details: 101.33 kPa, Liquid, Small sample (50 mg) DSC

Clc1ccccc1Cl [1,2-dichlorobenzene]
Details	mass density [kg/m3]	molar heat capacity at constant pressure [J/K/mol]
[1], 288.15 K	1311.76	–
[1], 298.15 K	1300.61	–
[1], 308.15 K	1289.45	–
[1], 318.15 K	1278.29	–
[1], 328.15 K	1267.09	–
[1], 338.15 K	1255.87	–
[2], 283.15 K	–	167.68
[2], 285.15 K	–	168.06
[2], 287.15 K	–	168.44
[2], 289.15 K	–	168.83
[2], 291.15 K	–	169.23
[2], 293.15 K	–	169.64
[2], 295.15 K	–	170.05
[2], 297.15 K	–	170.47
[2], 299.15 K	–	170.89
[2], 301.15 K	–	171.32
[2], 303.15 K	–	171.76
[2], 305.15 K	–	172.2
[2], 307.15 K	–	172.64
[2], 309.15 K	–	173.09
[2], 311.15 K	–	173.54
[2], 313.15 K	–	174
[2], 315.15 K	–	174.46
[2], 317.15 K	–	174.92
[2], 319.15 K	–	175.38
[2], 321.15 K	–	175.85
[2], 323.15 K	–	176.32
[2], 325.15 K	–	176.79
[2], 327.15 K	–	177.26
[2], 329.15 K	–	177.73
[2], 331.15 K	–	178.2
[2], 333.15 K	–	178.67
[2], 335.15 K	–	179.14
[2], 337.15 K	–	179.61
[2], 339.15 K	–	180.07
[2], 341.15 K	–	180.54
[2], 343.15 K	–	181
[2], 345.15 K	–	181.47
[2], 347.15 K	–	181.92
[2], 349.15 K	–	182.38
[2], 351.15 K	–	182.83
[2], 353.15 K	–	183.28

Clc1cccc(Br)c1 [1-bromo-3-chlorobenzene]
Details	mass density [kg/m3]	molar heat capacity at constant pressure [J/K/mol]
[1], 288.15 K	1638.44	–
[1], 298.15 K	1624.97	–
[1], 308.15 K	1611.51	–
[1], 318.15 K	1598.05	–
[1], 328.15 K	1584.56	–
[1], 338.15 K	1571.05	–
[2], 283.15 K	–	171.14
[2], 285.15 K	–	171.49
[2], 287.15 K	–	171.84
[2], 289.15 K	–	172.21
[2], 291.15 K	–	172.59
[2], 293.15 K	–	172.97
[2], 295.15 K	–	173.36
[2], 297.15 K	–	173.75
[2], 299.15 K	–	174.15
[2], 301.15 K	–	174.56
[2], 303.15 K	–	174.98
[2], 305.15 K	–	175.4
[2], 307.15 K	–	175.82
[2], 309.15 K	–	176.25
[2], 311.15 K	–	176.68
[2], 313.15 K	–	177.12
[2], 315.15 K	–	177.56
[2], 317.15 K	–	178
[2], 319.15 K	–	178.44
[2], 321.15 K	–	178.89
[2], 323.15 K	–	179.33
[2], 325.15 K	–	179.78
[2], 327.15 K	–	180.23
[2], 329.15 K	–	180.68
[2], 331.15 K	–	181.13
[2], 333.15 K	–	181.58
[2], 335.15 K	–	182.03
[2], 337.15 K	–	182.47
[2], 339.15 K	–	182.92
[2], 341.15 K	–	183.36
[2], 343.15 K	–	183.8
[2], 345.15 K	–	184.24
[2], 347.15 K	–	184.67
[2], 349.15 K	–	185.1
[2], 351.15 K	–	185.52
[2], 353.15 K	–	185.94

Brc1ccccc1 [bromobenzene]
Details	mass density [kg/m3]	molar heat capacity at constant pressure [J/K/mol]
[1], 288.15 K	1501.95	–
[1], 298.15 K	1488.45	–
[1], 308.15 K	1474.94	–
[1], 318.15 K	1461.39	–
[1], 328.15 K	1447.8	–
[1], 338.15 K	1434.15	–
[2], 283.15 K	–	151.63
[2], 285.15 K	–	151.99
[2], 287.15 K	–	152.37
[2], 289.15 K	–	152.75
[2], 291.15 K	–	153.14
[2], 293.15 K	–	153.54
[2], 295.15 K	–	153.94
[2], 297.15 K	–	154.35
[2], 299.15 K	–	154.77
[2], 301.15 K	–	155.19
[2], 303.15 K	–	155.62
[2], 305.15 K	–	156.05
[2], 307.15 K	–	156.49
[2], 309.15 K	–	156.93
[2], 311.15 K	–	157.38
[2], 313.15 K	–	157.83
[2], 315.15 K	–	158.28
[2], 317.15 K	–	158.74
[2], 319.15 K	–	159.2
[2], 321.15 K	–	159.66
[2], 323.15 K	–	160.13
[2], 325.15 K	–	160.6
[2], 327.15 K	–	161.06
[2], 329.15 K	–	161.53
[2], 331.15 K	–	162
[2], 333.15 K	–	162.48
[2], 335.15 K	–	162.95
[2], 337.15 K	–	163.42
[2], 339.15 K	–	163.89
[2], 341.15 K	–	164.36
[2], 343.15 K	–	164.83
[2], 345.15 K	–	165.3
[2], 347.15 K	–	165.76
[2], 349.15 K	–	166.23
[2], 351.15 K	–	166.69
[2], 353.15 K	–	167.15

Clc1cccc(Cl)c1Cl [1,2,3-trichlorobenzene]
[2]
Details	molar heat capacity at constant pressure [J/K/mol]
327.15 K	201.44
329.15 K	201.8
331.15 K	202.16
333.15 K	202.52
335.15 K	202.88
337.15 K	203.25
339.15 K	203.62
341.15 K	204
343.15 K	204.38
345.15 K	204.75
347.15 K	205.14
349.15 K	205.52
351.15 K	205.91
353.15 K	206.3

Clc1ccc(Cl)cc1 [1,4-dichlorobenzene]
[2]
Details	molar heat capacity at constant pressure [J/K/mol]
327.15 K	177.09
329.15 K	177.53
331.15 K	177.98
333.15 K	178.43
335.15 K	178.89
337.15 K	179.35
339.15 K	179.81
341.15 K	180.28
343.15 K	180.76
345.15 K	181.24
347.15 K	181.73
349.15 K	182.22
351.15 K	182.71
353.15 K	183.21

Clc1cccc(Cl)c1 [1,3-dichlorobenzene]
Details	mass density [kg/m3]	molar heat capacity at constant pressure [J/K/mol]
[1], 288.15 K	1294.08	–
[1], 298.15 K	1282.79	–
[1], 308.15 K	1271.49	–
[1], 318.15 K	1260.17	–
[1], 328.15 K	1248.82	–
[1], 338.15 K	1237.42	–
[2], 283.15 K	–	167.15
[2], 285.15 K	–	167.54
[2], 287.15 K	–	167.93
[2], 289.15 K	–	168.32
[2], 291.15 K	–	168.72
[2], 293.15 K	–	169.13
[2], 295.15 K	–	169.55
[2], 297.15 K	–	169.97
[2], 299.15 K	–	170.39
[2], 301.15 K	–	170.82
[2], 303.15 K	–	171.25
[2], 305.15 K	–	171.69
[2], 307.15 K	–	172.14
[2], 309.15 K	–	172.58
[2], 311.15 K	–	173.04
[2], 313.15 K	–	173.49
[2], 315.15 K	–	173.95
[2], 317.15 K	–	174.41
[2], 319.15 K	–	174.88
[2], 321.15 K	–	175.35
[2], 323.15 K	–	175.83
[2], 325.15 K	–	176.3
[2], 327.15 K	–	176.78
[2], 329.15 K	–	177.26
[2], 331.15 K	–	177.75
[2], 333.15 K	–	178.24
[2], 335.15 K	–	178.73
[2], 337.15 K	–	179.22
[2], 339.15 K	–	179.71
[2], 341.15 K	–	180.2
[2], 343.15 K	–	180.7
[2], 345.15 K	–	181.2
[2], 347.15 K	–	181.7
[2], 349.15 K	–	182.2
[2], 351.15 K	–	182.7
[2], 353.15 K	–	183.2

Clc1ccccc1Br [1-bromo-2-chlorobenzene]
Details	mass density [kg/m3]	molar heat capacity at constant pressure [J/K/mol]
[1], 288.15 K	1659.67	–
[1], 298.15 K	1646.32	–
[1], 308.15 K	1633.01	–
[1], 318.15 K	1619.69	–
[1], 328.15 K	1606.36	–
[1], 338.15 K	1593.03	–
[2], 283.15 K	–	172.25
[2], 285.15 K	–	172.59
[2], 287.15 K	–	172.94
[2], 289.15 K	–	173.29
[2], 291.15 K	–	173.65
[2], 293.15 K	–	174.02
[2], 295.15 K	–	174.39
[2], 297.15 K	–	174.78
[2], 299.15 K	–	175.17
[2], 301.15 K	–	175.56
[2], 303.15 K	–	175.96
[2], 305.15 K	–	176.36
[2], 307.15 K	–	176.77
[2], 309.15 K	–	177.19
[2], 311.15 K	–	177.61
[2], 313.15 K	–	178.03
[2], 315.15 K	–	178.45
[2], 317.15 K	–	178.88
[2], 319.15 K	–	179.31
[2], 321.15 K	–	179.74
[2], 323.15 K	–	180.17
[2], 325.15 K	–	180.6
[2], 327.15 K	–	181.03
[2], 329.15 K	–	181.47
[2], 331.15 K	–	181.9
[2], 333.15 K	–	182.33
[2], 335.15 K	–	182.77
[2], 337.15 K	–	183.2
[2], 339.15 K	–	183.62
[2], 341.15 K	–	184.05
[2], 343.15 K	–	184.47
[2], 345.15 K	–	184.89
[2], 347.15 K	–	185.31
[2], 349.15 K	–	185.72
[2], 351.15 K	–	186.13
[2], 353.15 K	–	186.53

Clc1ccc(Cl)c(Cl)c1Cl [1,2,3,4-tetrachlorobenzene]
[2]
Details	molar heat capacity at constant pressure [J/K/mol]
327.15 K	225.17
329.15 K	225.49
331.15 K	225.82
333.15 K	226.14
335.15 K	226.47
337.15 K	226.8
339.15 K	227.13
341.15 K	227.46
343.15 K	227.8
345.15 K	228.13
347.15 K	228.47
349.15 K	228.81
351.15 K	229.16
353.15 K	229.5
